# Laboratory results as given in paper PMC10233829 (ACS Omega, 2023).
# System: M. tuberculosis Spec 210
# Assay: microbe, parasite or virus in culture
# Assay type: cell-based, Mycobacterium tuberculosis
# Conditions: for MIC M. tuberculosis Spec 210 (multidrug-resistant): MABA; for MIC: Mycobacterium tuberculosis, SPEC210, read-out: MIC M. tuberculosis Spec 210 (multidrug-resistant), MABA
SMILES,MIC M. tuberculosis Spec 210 (multidrug-resistant) [µg/mL],MIC [µg/mL]
"C=CC(=O)N1CCN(c2cc3c(cc2F)c(=O)c(C(=O)O)cn3C2CC2)CC1 [Compound 1, 7-(4-Acryloyl-piperazin-1-yl)-1-cyclopropyl-6-fluoro-4-oxo-1,4-dihydro-quinoline-3-carboxylic Acid]",2,1 to 2
"O=C(O)c1cn(C2CC2)c2cc(N3CCN(C(=O)C4CC4)CC3)c(F)cc2c1=O [Compound 2, 7-(4-Cyclopropanecarbonyl-piperazin-1-yl)-1-cyclopropyl-6-fluoro-4-oxo-1,4-dihydro-quinoline-3-carboxylic Acid]",,≤ 0.25
"O=C(O)c1cn(C2CC2)c2cc(N3CCN(C(=O)CCl)CC3)c(F)cc2c1=O [Compound 3, 7-[4-(2-Chloroacetyl)-piperazin-1-yl]-1-cyclopropyl-6-fluoro-4-oxo-1,4-dihydro-quinoline-3-carboxylic Acid]",2,1 to 2
"O=C(O)c1cn(C2CC2)c2cc(N3CCN(C(=O)CCCl)CC3)c(F)cc2c1=O [Compound 4, 7-[4-(3-Chloropropionyl)-piperazin-1-yl]-1-cyclopropyl-6-fluoro-4-oxo-1,4-dihydro-quinoline-3-carboxylic Acid]",2,1 to 2
"O=C(O)c1cn(C2CC2)c2cc(N3CCN(C(=O)CCCCl)CC3)c(F)cc2c1=O [Compound 5, 7-[4-(4-Chlorobutyryl)-piperazin-1-yl]-1-cyclopropyl-6-fluoro-4-oxo-1,4-dihydro-quinoline-3-carboxylic Acid]",,≤ 0.25
"O=C(O)c1cn(C2CC2)c2cc(N3CCN(C(=O)CCCCCl)CC3)c(F)cc2c1=O [Compound 6, 7-[4-(5-Chloropentanoyl)-piperazin-1-yl]-1-cyclopropyl-6-fluoro-4-oxo-1,4-dihydro-quinoline-3-carboxylic Acid]",,≤ 0.25
"O=C(O)c1cn(C2CC2)c2cc(N3CCN(C(=O)CCCCCCl)CC3)c(F)cc2c1=O [Compound 7, 7-[4-(6-Chlorohexanoyl)-piperazin-1-yl]-1-cyclopropyl-6-fluoro-4-oxo-1,4-dihydro-quinoline-3-carboxylic Acid]",,≤ 0.25
"O=C(O)c1cn(C2CC2)c2cc(N3CCN(C(=O)CBr)CC3)c(F)cc2c1=O [Compound 8, 7-[4-(2-Bromoacetyl)-piperazin-1-yl]-1-cyclopropyl-6-fluoro-4-oxo-1,4-dihydro-quinoline-3-carboxylic Acid]",,8
"O=C(O)c1cn(C2CC2)c2cc(N3CCN(C(=O)CCBr)CC3)c(F)cc2c1=O [Compound 9, 7-[4-(3-Bromopropionyl)-piperazin-1-yl]-1-cyclopropyl-6-fluoro-4-oxo-1,4-dihydro-quinoline-3-carboxylic Acid]",1,1 to 2
"O=C(O)c1cn(C2CC2)c2cc(N3CCN(C(=O)CCCBr)CC3)c(F)cc2c1=O [Compound 10, 7-[4-(4-Bromobutyryl)-piperazin-1-yl]-1-cyclopropyl-6-fluoro-4-oxo-1,4-dihydro-quinoline-3-carboxylic Acid]",,≤ 0.25
"O=C(O)c1cn(C2CC2)c2cc(N3CCN(C(=O)CCCCBr)CC3)c(F)cc2c1=O [Compound 11, 7-[4-(5-Bromopentanoyl)-piperazin-1-yl]-1-cyclopropyl-6-fluoro-4-oxo-1,4-dihydro-quinoline-3-carboxylic Acid]",,≤ 0.25
"O=C(O)c1cn(C2CC2)c2cc(N3CCN(C(=O)CCCCCBr)CC3)c(F)cc2c1=O [Compound 12, 7-[4-(6-Bromohexanoyl)-piperazin-1-yl]-1-cyclopropyl-6-fluoro-4-oxo-1,4-dihydro-quinoline-3-carboxylic Acid]",,≤ 0.25
"O=C(O)c1cn(C2CC2)c2cc(N3CCN(C(=O)CCCCCCCCCCBr)CC3)c(F)cc2c1=O [Compound 13, 7-[4-(11-Bromoundekanoyl)-piperazin-1-yl]-1-cyclopropyl-6-fluoro-4-oxo-1,4-dihydro-quinoline-3-carboxylic Acid]",1,1 to 2
"O=C(O)c1cn(C2CC2)c2cc(N3CCN(C(=O)CC(F)(F)F)CC3)c(F)cc2c1=O [Compound 14, 7-[4-(3,3,3-Trifluoropropionyl)-piperazin-1-yl]-1-cyclopropyl-6-fluoro-4-oxo-1,4-dihydro-quinoline-3-carboxylic Acid]",,32
"O=C(O)c1cn(C2CC2)c2cc(N3CCN(C(=O)CCC(F)(F)F)CC3)c(F)cc2c1=O [Compound 15, 7-[4-(4,4,4-Trifluorobutyryl)-piperazin-1-yl]-1-cyclopropyl-6-fluoro-4-oxo-1,4-dihydro-quinoline-3-carboxylic Acid]",,32
"O=C(O)c1cn(C2CC2)c2cc(N3CCN(C(=O)CCCC(F)(F)F)CC3)c(F)cc2c1=O [Compound 16, 7-[4-(5,5,5-Trifluoropentanoyl)-piperazin-1-yl]-1-cyclopropyl-6-fluoro-4-oxo-1,4-dihydro-quinoline-3-carboxylic Acid]",,32
"O=C(O)c1cn(C2CC2)c2cc(N3CCN(CC(=O)N4CCN(c5cc6c(cc5F)c(=O)c(C(=O)O)cn6C5CC5)CC4)CC3)c(F)cc2c1=O [Compound 17, CP–Acetyl–CP Dimer]",,16
"O=C(O)c1cn(C2CC2)c2cc(N3CCN(CCCC(=O)N4CCN(c5cc6c(cc5F)c(=O)c(C(=O)O)cn6C5CC5)CC4)CC3)c(F)cc2c1=O [Compound 18, CP–Butyryl–CP Dimer]",,4
"O=C(O)c1cn(C2CC2)c2cc(N3CCN(CCCCC(=O)N4CCN(c5cc6c(cc5F)c(=O)c(C(=O)O)cn6C5CC5)CC4)CC3)c(F)cc2c1=O [Compound 19, CP–Pentanoyl–CP Dimer]",1,1 to 2
"O=C(O)c1cn(C2CC2)c2cc(N3CCN(CCCCCC(=O)N4CCN(c5cc6c(cc5F)c(=O)c(C(=O)O)cn6C5CC5)CC4)CC3)c(F)cc2c1=O [Compound 20, CP–Hexanoyl–CP Dimer]",,16
"O=C(O)c1cn(C2CC2)c2cc(N3CCN(CCCCCCCCCCC(=O)N4CCN(c5cc6c(cc5F)c(=O)c(C(=O)O)cn6C5CC5)CC4)CC3)c(F)cc2c1=O [Compound 21, CP–Undecanoyl–CP Dimer]",1,1 to 2
"CC[C@@H](CO)NCCN[C@@H](CC)CO [ethambutol(EMB), ethambutol, reference compound]",,32
"NNC(=O)c1ccncc1 [isoniazid (INH), isoniazid, reference compound]",,16
"CO[C@H]1/C=C/O[C@@]2(C)Oc3c(C)c(O)c4c(O)c(c(/C=N/N5CCN(C)CC5)c(O)c4c3C2=O)NC(=O)/C(C)=C\C=C\[C@H](C)[C@H](O)[C@@H](C)[C@@H](O)[C@@H](C)[C@H](OC(C)=O)[C@@H]1C [rifampicin (RMP), rifampicin, reference compound]",,32
"[H]/N=C(/N)N[C@H]1[C@H](O)[C@@H](O)[C@H](O[C@@H]2O[C@@H](C)[C@](O)(C=O)[C@H]2O[C@@H]2O[C@@H](CO)[C@H](O)[C@@H](O)[C@@H]2NC)[C@@H](N/C(N)=N\[H])[C@@H]1O [streptomycin (SM), streptomycin, reference compound]",,16
